In patent publication US11802107B2, “Compounds and methods of use” (Signum Biosciences, Inc., priority 2017, dated 2023):

Assays:
Type in all cases: cell-based
TSLP = test: S. aureus-induced TSLP on NHEKs; conditions: Homo sapiens; NHEK, live S. aureus ATCC 33591 1:1, 24 hours, ELISA; read-out: S. aureus-NHEK TSLP Protein IC50
Experimental: Normal human epidermal keratinocytes (NHEKs) from neonatal donors were obtained from Thermo-Fisher (Cat No. C-001-5C). Cells were cultured in 96-well plates for 24 hours with EpiLife media (Cat No. MEPI500CA) supplemented with keratinocytes growth supplement (Cat No. 50015). On Day 2, media was removed and replaced with supplement-depleted medium for 24 hours. On Day 3, media was removed and cells were pre-treated with test materials (≤[…]) for 2 hours and later co-treated with test materials and live S. aureus (ATCC® 33591) at 1:1 NHEK:bacteria ratio for 24 hours at 37° C. and 5% CO2. After incubation, cell media supernatants were harvested and used to measure TSLP levels using ELISA kit (R&D Systems® #DY1398). Results were represented as percent of inhibition relative to untreated and S. aureus-only treated cells. IC50 values were determined by non-linear regression analysis using the four-parameter logistic equation.

IL-5 = test: T-cell receptor (anti-CD3/CD28)-induced IL-5 on PBMCs; conditions: Homo sapiens, PBMC, anti-CD3/CD28 beads, 24 hours, ELISA, read-out: TCR-PBMCs IL-5 Protein IC50
Experimental: (§1) Cryopreserved human Peripheral Blood Mononuclear cells (PBMCs) from healthy adult donors were obtained from Zen Bio, Inc (Cat No. SER-PBMC-F). Cells were cultured in 96-well plates with lymphocyte media (Cat No. LYMPH-1) and were pre-treated with test materials (≤100 μM) for 2 hours and later co-treated with test materials and anti-CD3/CD28 beads (Thermo-Fisher; Cat No. 11131D) at 1:0.4 PBMC:bead ratio for 24 hours at 37° C. and 5% CO2. After incubation, cell media supernatants were harvested and used to measure cytokine levels (IL-4, IL-5, IL-10) using ELISA kits (BD Biosciences® #555194, #555157; R&D Systems® #DY317). Results were represented as percent of inhibition relative to untreated and anti-CD3/CD28 beads-only treated cells. IC50 values were determined by non-linear regression analysis using the four-parameter logistic equation.

IL-2 = test: PHA-induced IL-2 on PBMCs; conditions: Homo sapiens, PBMC, PHA-L 20 μg/mL, 24 hours, ELISA
Experimental: Cryopreserved human Peripheral Blood Mononuclear cells (PBMCs) from healthy adult donors were obtained from Zen Bio, Inc (Cat No. SER-PBMC-F). Cells were cultured in 96-well plates with lymphocyte media (Cat No. LYMPH-1) and were pre-treated with test materials (≤100 μM) for 2 hours and later co-treated with test materials and PHA-L (Sigma Aldrich, Cat No. 11249738001) at 20 μg/mL and incubated for 24 hours at 37° C. and 5% CO2. After incubation, cell media supernatants were harvested and used to measure cytokine levels (IL-2, IFNγ) using ELISA kits (R&D Systems® #DY202, #DY285). Results were represented as percent of inhibition relative to untreated and PHA-only treated cells. IC50 values were determined by non-linear regression analysis using the four-parameter logistic equation.

IL-23 = test: LPS/IFNγ-induced IL-23 on CD14+ monocytes; conditions: Homo sapiens, Monocyte, 50 μg/mL LPS + 5 μg/mL IFNγ, 24 hours, ELISA
Experimental: Cryopreserved human peripheral blood monocytes cells (CD14+) from healthy adult donors were obtained from Zen Bio, Inc (Cat No. SER-CD4-F). Cells were cultured in 96-well plates with lymphocyte media (Cat No. LYMPH-1) and were pre-treated with test materials (≤100 μM) for 2 hours and later co-treated with test materials and 50 μg/mL LPS, 5 μg/mL IFNγ (Sigma Aldrich, Cat No. L4321, SRP3058) and incubated for 24 hours at 37° C. and 5% CO2. After incubation, cell media supernatants were harvested and used to measure cytokine levels (IL-23) using ELISA kits (R&D Systems® #DY1290). Results were represented as percent of inhibition relative to untreated and […] treated cells. IC50 values were determined by non-linear regression analysis using the four-parameter logistic equation.

IL-22 = test: Anti-CD3/CD28+IL-4-induced IL-22 on PBMCs; conditions: Homo sapiens, PBMC, anti-CD3/CD28 beads + 50 ng/mL IL-4, 48 hours, ELISA, read-out: TCR/IL-4-PBMCs IL-22 IC50
Experimental: as §1, with “and 50 ng/mL recombinant human IL-4 (R&D Systems® #204-IL)” for “at 1:0.4 PBMC:bead ratio”, “48” for “24”, “(IL-22, IL-31)” for “(IL-4, IL-5, IL-10)”, “(R&D” for “(BD Biosciences® #555194, #555157; R&D”, “#DY782, #DY2824).” for “#DY317).”, “anti-CD3/CD28+IL-4 only” for “anti-CD3/CD28 beads-only”

IL17A (IL-17A) = test: P. acnes-induced IL-17 gene on human PBMCs (qPCR); conditions: PBMC, PBMCs + live P. acnes 1:1, test material 30 PM, 24 hours
Experimental: Cryopreserved human Peripheral Blood Mononuclear cells (PBMCs) from healthy adult donors were obtained from Zen Bio, Inc (Cat No. SER-PBMC-F). Cells were cultured in 12-well plates with lymphocyte media (Cat No. LYMPH-1) and incubated with test materials ([…]) and live P. acnes (ATCC® 6919TM) at 1:1 PBMC: P. acnes bacteria ratio for 24 hours at 37° C. and 5% CO2. After incubation, cell media supernatants were harvested and used to measure pro-inflammatory cytokine levels (IL-8, TNF-α, IL-1b, IL-17) using ELISA kits (BD Biosciences® #557966, #555212, #555244; R&D Systems® #DY317). Total RNA was extracted from cells using the RNAqueous® kit (Ambion®; Cat No. 1912) and cDNA was obtained using the High Capacity RNA-to-cDNA kit (Applied Biosystems®; Cat No. 4387406). Quantitative PCR (qPCR) was performed using the TaqMan® Fast Advanced Master Mix (Applied Biosystems®; Cat No. 4444556) and specific TaqMan®-probes human gene primers CXCL8 (IL-8), IL1B (IL-1b), TNF (TNF-α), IL17A (IL-17A) and GAPDH to calculate the relative gene fold expression change per treatment. Gene expression analysis was performed using the comparative Ct method (also known as the 2-[delta][delta]Ct) approach by comparing the Ct values of P. acnes-only treated cells with the untreated samples and normalized to GAPDH gene expression as endogenous housekeeping gene.

| Compound | IC50 (TSLP) | IC50 (IL-5) | IC50 (IL-2) | IC50 (IL-23) | IC50 (IL-22) | inhibition at 30 pM (IL17A (IL-17A)) |
| --- | --- | --- | --- | --- | --- | --- |
| C/C(=C\CSCC(NC(=O)NCC(=O)O)C(=O)O)CCCC(C)CCCC(C)CCCC(C)C (stereo not shown) [A] | 9 µM | 55 µM | – | – | – | – |
| C/C(=C\CSC[C@H](NC(=O)N(C)CC(=O)O)C(=O)O)CCCC(C)CCCC(C)CCCC(C)C (stereo partly drawn) [Compound C, (2R)-2-{[(carboxymethyl)(methyl)carbamoyl]amino}-3-{[(2E)-3,7,11,15-tetramethylhexadec-2-en-1-yl]sulfanyl}propanoic acid] | 3 µM | 46 µM | 0.9 µM | 0.19 µM | > 25 µM | 0% |
| C/C(=C\CSC[C@H](NC(=O)N1CCC[C@H]1C(=O)O)C(=O)O)CCCC(C)CCCC(C)CCCC(C)C (stereo partly shown) [Compound E] | – | 63 µM | 4.1 µM | 11.2 µM | > 25 µM | 0% |
| C/C(=C\CSCC(NC(=O)N(CC(=O)O)CC(=O)O)C(=O)O)CCCC(C)CCCC(C)CCCC(C)C (stereo not shown) [Compound G] | – | – | 3.3 µM | 3.08 µM | > 25 µM | 0% |

Now from value to compound, other results behind:

| IC50 (TSLP) | IC50 (IL-5) | IC50 (IL-2) | IC50 (IL-23) | IC50 (IL-22) | Compound | inhibition at 30 pM (IL17A (IL-17A)) |
| --- | --- | --- | --- | --- | --- | --- |
| 5 µM | 1 µM | 0.04 µM | 0.65 µM | 2 µM | N#Cc1ccc(Oc2ccc3c(c2)COB3O)cc1 [AN2728, reference compound] | – |
| 10 µM | 9 µM | 0.1 µM | 0.05 µM | > 25 µM | C/C(=C\CSC[C@H](NC(=O)COCC(=O)O)C(=O)O)CCCC(C)CCCC(C)CCCC(C)C (stereo partly shown) [Compound T] | 0% |
